Laboratory results published in patent US20250002503A1, “OXADIAZASPIRO COMPOUNDS FOR USE IN THE TREATMENT OF MOTONEURON DEGENERATION OR IN NEUROPROTECTION” (ESTEVE PHARMACEUTICALS, S.A., priority 2021, published 2025).
Read-outs that look alike come from different tables or passages of the source.

Experiments:
[1] = molecular target: human Sig-1R (Homo sapiens, UniProt Q99720); test: Affinity for the human Sig-1R; type: binding
Procedure: (§1) A selectivity profile (Spectrum Screen) including a panel with more than 180 binding assays for different receptors, ion channels, transporters and enzymes was performed for compound A and compound B at EurofinsPanlabs according to their specifications.

[2] = molecular target: Sig-2R (Homo sapiens, UniProt Q5BJF2); test: Affinity for the Sig-2R; type: binding; settings: not shown
Procedure: as §1

[3] = test system: motoneurons (MNs) in spinal cord organotypic cultures; test: Spinal cord organotypic cultures (SCOCs) under THA chronic excitotoxicity, SMI-32 positive MN count; type: cell-based, Sprague-Dawley rats; settings: THA 100 μM, 28 DIV
Procedure: Briefly, the spinal cord was collected and cut in 350 μm thick transverse sections with a Mcllwain Tissue Chopper. Four lumbar sections per sample were transferred onto Millicell-CM nets (0.4 μm, PICM03050, Millipore) in medium [50% (v/v) minimal essential medium (MEM, M5775, Sigma), 2 mM glutamine, 25 mM HEPES, 25% (v/v) Hank's Balanced Salt Solution (HBSS^−/−, 14175, Gibco) supplemented with 25.6 mg/ml glucose and 25% (v/v) heat-inactivated horse serum (26050-088, Gibco), pH=7.2]. Cultures were maintained at 37° C. in a 5% CO2 humidified cabin and let to stabilize. After 7 days in vitro (DIV), DL-threo-b-hydroxyaspartic acid (THA; 100 μM) was added to induce chronic excitotoxicity (Rothstein et al., 1993). The neuroprotective effect of each Sig-1R ligand was assessed by its coaddition to the culture with THA and renewing at each medium change. […] In vitro experiments were performed in three independent cultures, with at least 12 different SCOCs for each experimental condition.
Slices were maintained for 28 DIV and then fixed with 4% paraformaldehyde. […] MN survival was assessed by counting all SMI-32 positive neurons in each spinal cord using the Cell Counter plugin of ImageJ software.

[4] = in vivo; parameters: species or system male SOD1^G93A mice; settings: mouse, ip; for concentration at 15 min: male, SOD1^G93A
Procedure: Plasma levels were determined in the two in vivo models evaluated to be able to associate the pharmacological activity with the levels present in plasma. […] […] […] Results are expressed as mean±standard deviation (n=2-6).

[5] = test system: SOD1^G93A mice; settings: for NMJ innervation (proportion of innervated endplates) of hindlimb muscle: SOD1^G93A mice at 16 weeks; for NMJ innervation (proportion of innervated endplates) of hindlimb muscle / astrocyte activation (GFAP) in ventral horn: compounds 5 mg/kg; for NMJ innervation (proportion of innervated endplates) of hindlimb muscle / astrocyte activation (GFAP) in ventral horn / CMAP amplitude of TA and plantar muscles: PRE-084 0.25 mg/kg i.p. bid; for number of surviving spinal MNs per section / astrocyte activation (GFAP) in ventral horn / CMAP amplitude of TA and plantar muscles: SOD1^G93A mice; for number of surviving spinal MNs per section: 16 weeks of age, mean±SEM; for astrocyte activation (GFAP) in ventral horn: 16 weeks; for CMAP amplitude of TA and plantar muscles: 11 and 13 weeks, compound 5 mg/kg
Procedure: Motor nerve conduction tests were performed before the surgery to obtain baseline values and at the end of the follow up in the rhizotomy model, whereas the SOD1^G93A mice were evaluated at 8 weeks (prior to starting drug administration) and then every 2-3 weeks until the end point at 16 weeks of age. The sciatic nerve was stimulated by means of single pulses delivered through needle electrodes placed at the sciatic notch. The compound muscle action potential (CMAP) was recorded from tibialis anterior (TA), gastrocnemius (GM) and plantar interossei muscles with microneedle electrodes (Mancuso et al., 2011). The CMAPs were amplified to measure the latency to the onset and the amplitude from baseline to the maximal negative peak. The mice were anesthetized with pentobarbital (50 mg/kg i.p.) and their body temperature was maintained by means of a thermostated warming pad.
For neuromuscular junctions (NMJ) labeling, 50 μm-thick longitudinal sections of TA muscle were serially cut. Sections were blocked with 5% normal donkey serum and incubated with primary antibodies rabbit anti-synaptophysin (1:500; AB32127, Abcam) and chicken anti-neurofilament 200 (NF200, 1:1000; AB5539, Millipore, USA) 48 h at 4° C. After washes, sections were incubated overnight with secondary antibody Alexa Fluor 594-donkey anti-rabbit and anti-chicken (1:200; A11042-A21207, Invitrogen, USA) and Alexa 488 conjugated α-bungarotoxin (1:500; B13422, Life Technologies, USA). Confocal images were captured (LSM 700 Axio Observer, Carl Zeiss, 40×Oil/z0.5) and the maximum projection images generated from 1.3 μm z projections. The proportion of innervated NMJs was calculated by classifying each endplate as occupied (when presynaptic terminals overly the endplate) or vacant (no presynaptic label in contact with the endplate). At least 60 endplates were analyzed per muscle.

[6] = in vivo; settings: female, C57-BL6, mouse, ip, 10 mg/kg; for half-life: t1/2 (terminal half-life)
Procedure: (§2) Blood and brain samples were extracted at selected time points (15 min, 1, 3 and 6 h) from two animals per sampling point. Blood samples were collected by intracardiac puncture into heparinized tubes. Plasma was obtained by blood centrifugation at 4° C. and 2280 g for 10 min. Plasma and brain samples were kept at −80° C. until analysis. Brains were homogenized with Dulbecco's phosphate saline buffer pH 7.4 (4 ml/g tissue). Plasma and brain samples were assayed by ultra-performance liquid chromatography-triple quadrupole mass spectrometry (UPLC-MS/MS) after protein precipitation. Standard pharmacokinetic parameters, such as the area under the curve (AUC), peak plasma concentration (Cmax), time to peak concentration (tmax), and terminal half-life (t1/2) were determined by noncompartmental analysis of the plasma and brain concentration-time curves (Phoenix v.6.2.1.51, Pharsight, CA).

[7] = Pharmacokinetics in plasma and brain after single i.p. dose; settings: for AUC, brain / Cmax, brain / penetration into the brain / half-life: single i.p. 10 mg/kg; for AUC, brain / Cmax, brain / half-life: female mice; for penetration into the brain: mice; for half-life: t1/2 (terminal half-life)
Procedure: as §2

[8] = test system: rhizotomized mice (L4-L5 spinal nerve section); test: L4-L5 spinal roots injury (rhizotomy): MN survival, glial reactivity, tolerability; settings: for number of spinal MNs in the ipsilateral ventral horn (L4-L5) / astroglial reactivity, GFAP integrated density / microglial reactivity, IBA1 integrated density: 42 dpi, mean±SEM
Procedure: Briefly, the L4-L5 spinal roots were exposed by a small laminectomy on the right side. Then, roots were cut at the exit from the intervertebral foramina and the root stumps were separated. Mice were cared until recovery in warm environment.
The compounds were dissolved in 0.5% hydroxypropyl-methylcellulose (HPMC; Sigma-Aldrich) in distilled water. The compounds were administered by intraperitoneal (i.p.) route twice daily (bid) in a volume of 10 ml/kg. Administrations were given from 30 min after rhizotomy surgery until 42 days post-injury (dpi), the end of the study; in the SOD1^G93A study, treatments were given from 8 to 16 weeks of age.
At the end of follow up (42 days post-injury (dpi)) for rhizotomy and 16 weeks of age for ALS mice) the animals were deeply anesthetized and transcardially perfused with 4% paraformaldehyde in PBS. The lumbar spinal cord and the TA muscle were harvested and cryopreserved in 30% sucrose solution in PB. The spinal cords were serially cut in 20 μm-thick transverse sections with a cryostat (Leica). For MN counting, L4-L5 spinal cord sections separated 100 μm were stained for 3 h with an acidified solution of 3.1 mM cresyl violet.
Finally, sides were mounted with Fluoromount G. To quantify glial cell reactivity, images of the ventral horn were acquired with an epifluorescence microscope (Nikon Eclipse Ni, Japan) using the same conditions for each analyzed marker. After defining a threshold for background correction, the integrated density of GFAP or Iba1 labeling was measured using ImageJ software.

[9] = Plasma levels in the rhizotomy model after chronic i.p. administration; parameters: species or system female mice (B6SJL); settings: mouse, in vivo, ip, 0.25 mg/kg
[10] = cited from earlier work
[11] = 5 mg/kg i.p. bid, untreated 6.9±0.5, WT 25.3±0.5
[12] = 0.5 mg/kg bid i.p., not significant
[13] = 5 mg/kg bid i.p., untreated 19×10^4±5×10^4
[14] = 5 mg/kg bid i.p., untreated 26×10^4±3×10^4
[15] = twice daily i.p. administration for 6 weeks
[16] = female, C57-BL6, mouse, brain, ip, 10 mg/kg
[17] = female, C57-BL6, mouse, plasma, ip, 10 mg/kg

Chain of human Sig-1R (Q99720 whole entry): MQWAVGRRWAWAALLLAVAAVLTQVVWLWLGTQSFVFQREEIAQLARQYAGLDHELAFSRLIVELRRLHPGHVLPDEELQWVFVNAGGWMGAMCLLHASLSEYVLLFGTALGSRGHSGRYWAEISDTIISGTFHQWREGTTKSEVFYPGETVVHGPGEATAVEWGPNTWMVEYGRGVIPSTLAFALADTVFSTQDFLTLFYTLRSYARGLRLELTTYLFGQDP
Chain of Sig-2R (Q5BJF2 whole entry): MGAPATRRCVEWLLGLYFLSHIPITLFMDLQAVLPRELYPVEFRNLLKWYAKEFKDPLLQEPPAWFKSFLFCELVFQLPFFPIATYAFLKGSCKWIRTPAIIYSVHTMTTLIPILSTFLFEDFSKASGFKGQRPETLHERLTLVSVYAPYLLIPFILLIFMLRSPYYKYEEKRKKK

Compound	affinity for the human Sig-1R [1]	IC50 [2] [µM]	concentration at 15 min ([4]; 5 mg/kg) [ng/mL]	NMJ innervation (proportion of innervated endplates) of hindlimb muscle [5]	number of surviving spinal MNs per section [5, 11]	astrocyte activation (GFAP) in ventral horn [5]	AUC, brain ([7]; brain) [ng·h/g]	Cmax, brain ([7]; brain) [ng/g]	penetration into the brain [7]	number of spinal MNs in the ipsilateral ventral horn (L4-L5) [8, 12]	astroglial reactivity, GFAP integrated density [8, 13]	microglial reactivity, IBA1 integrated density [8, 14]	toxicity on chronic administration [8, 15]	CMAP amplitude of TA and plantar muscles [5]	other results
CCN1CC2(CCN(Cc3ccc(C#N)c(F)c3)CC2)O[C@@H](C)C1=O [Compound B, (S)-4-((4-ethyl-2-methyl-3-oxo-1-oxa-4,9-diazaspiro[5.5]undecan-9-yl)methyl)-2-fluorobenzonitrile]	high affinity	> 10	~500	tendency to preserve NMJ innervation	8.5±1.0	significant decrease of astrocyte activation	1698	2652	good penetration into the brain	7.4±0.7	15×10^4±2.7×10^4	25×10^4±4×10^4	did not cause toxicity	–	preservation of MNs (SMI-32 positive) vs THA condition ([3]; 3 and 30 μM): significantly preserved MNs; AUC [6]: 802 ng·h/mL; Cmax [6]: 1340 ng/mL; Kp [6]: 2.1; Tmax [6]: 0.25 h; half-life ([6]; brain): 3.4 h; half-life ([6]; plasma): 2.2 h; body weight compared with the vehicle group [8, 15]: no difference in body weight
O=C(OCCN1CCOCC1)C1(c2ccccc2)CCCCC1 [PRE-084, reference compound]	good affinity	–	–	significantly increased the proportion of innervated endplates	–	significant decrease of astrocyte activation	–	–	–	–	–	–	–	higher CMAP amplitude values	Plasma concentration 30 min post-administration [9]: 3.6 ng/mL; Plasma concentration 30 min post-administration ([4]; 0.25 mg/kg): 2.6 ng/mL; number of surviving spinal MNs per section ([5]; 0.25 mg/kg i.p. bid): 12.4±0.9; Cmax, plasma ([10]; mouse, in vivo, ip, 10 mg/kg): 659 ng/mL; Cmax, brain ([10]; single i.p. 10 mg/kg, concentration at 5 min post-administration, brain): 774 ng/g; astroglial reactivity, GFAP integrated density ([8]; 0.25 mg/kg bid i.p.): 6×10^4±0.9×10^4; microglial reactivity, IBA1 integrated density ([8]; 0.25 mg/kg bid i.p.): 15×10^4±1.4×10^4; number of spinal MNs in the ipsilateral ventral horn (L4-L5) ([8]; 0.25 mg/kg bid i.p., positive control): 8.9±0.4
C[C@@H]1OC2(CCN(Cc3ccc(F)cc3)CC2)CN(C)C1=O [Compound A, (S)-9-(4-fluorobenzyl)-2,4-dimethyl-1-oxa-4,9-diazaspiro[5.5]undecan-3-one]	high affinity	> 10	~500	tendency to preserve NMJ innervation	10.8±1.1	significant decrease of astrocyte activation	4873	5405	good penetration into the brain	7.6±0.9	4×10^4±0.4×10^4	13×10^4±2×10^4	did not cause toxicity	significantly prevented the decline in amplitude of the CMAP	number of SMI-32 positive neurons vs THA condition ([3]; tested at 0.03, 0.3, 3 and 30 μM, significant at three concentrations): significantly more SMI-32 positive neurons; estimated brain concentration ([4]; 5 mg/kg): about two-fold the concentration of compound B; Kp ([7]; female, C57-BL6, mouse, brain and plasma, ip, 10 mg/kg): 4.4; Tmax [7, 16]: 0.25 h; half-life [7, 16]: > 5 h; AUC [7, 17]: 1120 ng·h/mL; Cmax [7, 17]: 1350 ng/mL; Tmax [7, 17]: 0.25 h; half-life [7, 17]: > 5 h; number of spinal MNs in the ipsilateral ventral horn (L4-L5) ([8]; 5 mg/kg/bid i.p. for 6 weeks, untreated injured 6.8±0.3): 8.6±0.6
